Reference: ChEMBL document CHEMBL4480377, “Synthesis and biological evaluation of zinc chelating compounds as metallo-β-lactamase inhibitors” (Medchemcomm, 2019)

Assays:
[1] = target: Metallo-beta-lactamase type 2 (Klebsiella pneumoniae) (UniProt C7C422); assay: Inhibition of NDM1 in Pseudomonas aeruginosa assessed as potentiation of meropenem-induced antibacterial activity by measuring meropenem MIC at 50 uM after 20 hrs by broth microdilution assay (meropenem alone = 32 to 64 mg/L)
[2] = target: Beta-lactamase VIM-2 (Pseudomonas aeruginosa) (UniProt Q9K2N0); assay: Inhibition of beta-lactamase VIM-2 in Pseudomonas aeruginosa assessed as potentiation of meropenem-induced antibacterial activity by measuring meropenem MIC at 50 uM after 20 hrs by broth microdilution assay (meropenem alone = 32 to 64 mg/L)
[3] = target: Beta-lactamase VIM-2 (Pseudomonas aeruginosa) (UniProt Q9K2N0); assay: Inhibition of beta-lactamase VIM-2 in Pseudomonas aeruginosa assessed as potentiation of meropenem-induced antibacterial activity by measuring meropenem MIC at 16 uM after 20 hrs by broth microdilution assay (meropenem alone = 32 to 64 mg/L)
[4] = target: Metallo-beta-lactamase type 2 (Klebsiella pneumoniae) (UniProt C7C422); assay: Inhibition of NDM1 in Pseudomonas aeruginosa assessed as potentiation of meropenem-induced antibacterial activity by measuring meropenem MIC at 16 uM after 20 hrs by broth microdilution assay (meropenem alone = 32 to 64 mg/L)
[5] = target: Beta-lactamase VIM-2 (Pseudomonas aeruginosa) (UniProt Q9K2N0); assay: Inhibition of beta-lactamase VIM-2 in Pseudomonas aeruginosa assessed as potentiation of meropenem-induced antibacterial activity by measuring meropenem MIC at 31 uM after 20 hrs by broth microdilution assay (meropenem alone = 32 to 64 mg/L)
HepG2 = assay: Cytotoxicity against human HepG2 cells after 72 hrs by MTT assay; type: cell-based; conditions: HepG2, 72 h
[6] = target: Metallo-beta-lactamase type 2 (Klebsiella pneumoniae) (UniProt C7C422); assay: Inhibition of NDM1 in Pseudomonas aeruginosa assessed as potentiation of meropenem-induced antibacterial activity by measuring meropenem MIC at 31 uM after 20 hrs by broth microdilution assay (meropenem alone = 32 to 64 mg/L)
MDA-MB-231 = assay: Cytotoxicity against human MDA-MB-231 cells after 72 hrs by MTT assay; type: cell-based; conditions: MDA-MB-231, 72 h
[7] = Binding affinity to zinc assessed as dissociation constant for compound-metal complex
[8] = target: Beta-lactamase VIM-2 (Pseudomonas aeruginosa) (UniProt Q9K2N0); assay: Inhibition of beta-lactamase VIM-2 in Pseudomonas aeruginosa assessed as potentiation of meropenem-induced antibacterial activity by measuring meropenem MIC at 125 uM after 20 hrs by broth microdilution assay (meropenem alone = 32 to 64 mg/L)
[9] = Cytotoxicity against human MiaPaCa cells after 72 hrs by MTT assay; type: cell-based; conditions: MIA PaCa-2, 72 h
COLO357 = assay: Cytotoxicity against human Colo-357 cells after 72 hrs by MTT assay; type: cell-based; conditions: COLO357, 72 h
[10] = target: Metallo-beta-lactamase type 2 (Klebsiella pneumoniae) (UniProt C7C422); assay: Inhibition of NDM1 in Pseudomonas aeruginosa assessed as potentiation of meropenem-induced antibacterial activity by measuring meropenem MIC at 125 uM after 20 hrs by broth microdilution assay (meropenem alone = 32 to 64 mg/L)

Metallo-beta-lactamase type 2 (Klebsiella pneumoniae), sequence (C7C422 whole entry): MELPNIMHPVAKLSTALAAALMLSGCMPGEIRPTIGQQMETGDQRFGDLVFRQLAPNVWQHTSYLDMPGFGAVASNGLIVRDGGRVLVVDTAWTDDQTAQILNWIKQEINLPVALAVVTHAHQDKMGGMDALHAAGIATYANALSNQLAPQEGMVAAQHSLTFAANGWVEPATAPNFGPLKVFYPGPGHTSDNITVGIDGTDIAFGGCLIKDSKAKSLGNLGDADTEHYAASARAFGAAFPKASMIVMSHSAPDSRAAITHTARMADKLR

Row | Compound | MIC [1] [µg/mL] | MIC [2] [µg/mL] | MIC [3] [µg/mL] | MIC [4] [µg/mL] | MIC [5] [µg/mL] | MIC [6] [µg/mL] | pKd [7] | MIC [8] [µg/mL] | MIC [10] [µg/mL] | IC50 (HepG2) [µM] | IC50 (MDA-MB-231) [µM] | IC50 [9] [µM] | IC50 (COLO357) [µM]
1 | COC(=O)[C@@H](C)NC(=O)[C@H](CCCCNC(C)=O)NC(=O)Cn1cc(CN(Cc2ccccn2)Cc2ccccn2)nn1 | 8 | 32 | – | – | – | – | – | – | – | – | – | – | –
2 | CN(CCN(Cc1ccccn1)Cc1ccccn1)CC(=O)N(C)C[C@H](O)[C@@H](O)[C@H](O)[C@H](O)CO | – | – | 32 | 32 | 1 | 0.25 | – | – | – | 118 | – | – | –
3 | NCC(=O)NCC(=O)NCCc1ccc(-n2cc(CN(Cc3ccccn3)Cc3ccccn3)nn2)cc1 | 4 | 8 | – | – | – | – | – | – | – | – | – | – | –
4 | COC(=O)[C@H](C)NC(=O)[C@H](C)NC(=O)Cn1cc(CN(Cc2ccccn2)Cc2ccccn2)nn1 | – | – | 32 | 16 | 16 | 8 | 8.9 | 8 | 2 | – | 157 | 105 | 96
5 | COC(=O)CNC(=O)[C@H](CCCCNC(=O)Cn1cc(CN(Cc2ccccn2)Cc2ccccn2)nn1)NC(C)=O | 4 | 16 | – | – | – | – | – | – | – | – | – | – | –
6 | Cl.NCC(=O)NCC(=O)NCCc1ccc(NC(=O)CN(CCN(Cc2ccccn2)Cc2ccccn2)Cc2ccccn2)cc1 | – | – | – | – | – | – | 12.3 | – | – | – | 15 | 21 | 24
7 | c1ccc(CNCCN(Cc2ccccn2)Cc2ccccn2)nc1 | – | – | 32 | 8 | 1 | 0.125 | – | 0.5 | < 0.25 | – | – | – | –
8 | COC(=O)[C@@H](C)NC(=O)[C@@H](C)NC(=O)Cn1cc(CN(Cc2ccccn2)Cc2ccccn2)nn1 | – | – | 32 | 32 | 64 | 16 | 8.9 | 2 | < 0.5 | – | 152 | 116 | 133
9 | COC(=O)CNC(=O)[C@H](CCCCNC(C)=O)NC(=O)Cn1cc(CN(Cc2ccccn2)Cc2ccccn2)nn1 | 8 | 32 | – | – | – | – | – | – | – | – | – | – | –
10 | CC(=O)NCCCC[C@H](NC(=O)Cn1cc(CN(Cc2ccccn2)Cc2ccccn2)nn1)C(=O)NCB(O)O | – | – | 32 | 16 | 16 | 8 | 8.9 | 2 | 0.5 | – | 101 | 66 | 112
11 | COC(=O)[C@@H](C)NC(=O)[C@H](CCCCNC(=O)Cn1cc(CN(Cc2ccccn2)Cc2ccccn2)nn1)NC(C)=O | 8 | 16 | – | – | – | – | – | – | – | – | – | – | –
12 | COC(=O)CNC(=O)CNC(=O)Cn1cc(CN(Cc2ccccn2)Cc2ccccn2)nn1 | – | – | – | – | – | – | 8.9 | 4 | 2 | – | 168 | 176 | 137
13 | COC(=O)CNC(=O)CNC(=O)Cc1ccc(-n2cc(CN(Cc3ccccn3)Cc3ccccn3)nn2)cc1 | 4 | 8 | – | – | – | – | – | – | – | – | – | – | –
14 | COC(=O)CNC(=O)CNC(=O)Cc1ccc(NC(=O)CN(CCN(Cc2ccccn2)Cc2ccccn2)Cc2ccccn2)cc1 | – | – | 32 | 16 | 2 | 2 | 12.3 | 1 | 0.125 | – | 7.8 | 12 | 12
15 | COC(=O)[C@@H](CCCCNC(=O)Cn1cc(CN(Cc2ccccn2)Cc2ccccn2)nn1)NC(=O)[C@@H](C)N | – | – | – | – | – | – | 8.9 | – | – | – | 127 | 106 | 114
16 | CC(=O)N[C@@H](CCCCNC(=O)Cn1cc(CN(Cc2ccccn2)Cc2ccccn2)nn1)C(=O)NCB(O)O | – | – | 32 | 16 | 32 | 8 | 8.9 | 2 | 0.5 | – | 128 | 119 | 82
17 | OC1O[C@H](Cn2cc(CN(CCN(Cc3ccccn3)Cc3ccccn3)Cc3ccccn3)nn2)[C@H](O)[C@H](O)[C@H]1O (some centres undefined) | – | – | 32 | 8 | 2 | 0.125 | – | – | – | 1.7 | – | – | –
18 | CCOC(=O)Cc1ccc(-n2cc(CN(Cc3ccccn3)Cc3ccccn3)nn2)cc1 | 4 | 16 | – | – | – | – | – | – | – | – | – | – | –
19 | COC(=O)[C@@H](CCCCn1cc(CN(Cc2ccccn2)Cc2ccccn2)nn1)NC(=O)[C@@H](C)NC(C)=O | – | – | – | – | – | – | 8.9 | 4 | 1 | – | 131 | 128 | 101

Now from value to compound, other results behind:

Row | MIC [1] [µg/mL] | MIC [2] [µg/mL] | MIC [3] [µg/mL] | MIC [4] [µg/mL] | MIC [5] [µg/mL] | MIC [6] [µg/mL] | pKd [7] | MIC [8] [µg/mL] | MIC [10] [µg/mL] | Compound | IC50 (HepG2) [µM] | IC50 (MDA-MB-231) [µM] | IC50 [9] [µM] | IC50 (COLO357) [µM]
20 | 0.125 | 1 | 32 | 16 | 1 to 2 | 0.125 | 11.8 | – | – | COC(=O)[C@@H](C)NC(=O)[C@@H](C)NC(=O)CN(C)CCN(Cc1ccccn1)Cc1ccccn1 | 6.83 | 4.5 | 5.1 | 4.3
21 | – | – | 32 | 8 | 2 | 0.125 | 12.3 | 2 | 0.125 | C[C@@H](N)C(=O)N[C@H](C)C(=O)NCCc1ccc(NC(=O)CN(CCN(Cc2ccccn2)Cc2ccccn2)Cc2ccccn2)cc1.Cl | 13.6 | 4.9 | 4.8 | 6.8
22 | – | – | – | – | – | – | 7.6 | 16 | 8 to 16 | COC(=O)[C@@H](C)NC(=O)[C@@H](C)NC(=O)CN(Cc1ccccn1)Cc1ccccn1 | – | 184 | 98 | 90
23 | – | – | – | – | – | – | 7.6 | 16 | 8 | C[C@@H](N)C(=O)N[C@H](C)C(=O)NCCc1ccc(NC(=O)CN(Cc2ccccn2)Cc2ccccn2)cc1.Cl | – | 127 | 118 | 21
24 | – | – | 32 | 16 | 4 | 0.125 | 12.3 | 1 | 0.125 | COC(=O)[C@@H](C)NC(=O)[C@@H](C)NC(=O)Cc1ccc(NC(=O)CN(CCN(Cc2ccccn2)Cc2ccccn2)Cc2ccccn2)cc1 | – | 4.1 | 5.9 | 5.4
25 | 4 | 8 | – | – | – | – | 8.9 | – | – | COC(=O)[C@@H](C)NC(=O)[C@@H](C)NC(=O)Cc1ccc(-n2cc(CN(Cc3ccccn3)Cc3ccccn3)nn2)cc1 | – | 125 | 119 | 105
26 | 4 | 4 | – | – | – | – | – | – | – | C[C@@H](N)C(=O)N[C@H](C)C(=O)NCCc1ccc(-n2cc(CN(Cc3ccccn3)Cc3ccccn3)nn2)cc1 | – | – | – | –
27 | – | – | 32 | 8 | 1 | 0.125 | – | 1 | 0.125 | COC(=O)[C@H](C)NC(=O)[C@H](C)NC(=O)Cc1ccc(NC(=O)CN(CCN(Cc2ccccn2)Cc2ccccn2)Cc2ccccn2)cc1 | – | – | – | –
28 | – | – | 32 | 16 | 4 | 0.125 | 12.3 | 2 | 0.125 | C[C@H](N)C(=O)N[C@@H](C)C(=O)NCCc1ccc(NC(=O)CN(CCN(Cc2ccccn2)Cc2ccccn2)Cc2ccccn2)cc1.Cl | – | 5.1 | 5.5 | 6.8
29 | – | – | – | – | – | – | 7.6 | 32 | 8 to 16 | COC(=O)[C@@H](C)NC(=O)[C@@H](C)NC(=O)CCC(=O)NCCc1ccc(NC(=O)CN(Cc2ccccn2)Cc2ccccn2)cc1 | – | 141 | 45 | 152
